Patent US5006522A, “Condensed diazepinones, processes for preparing them and pharmaceutical compositions containing these compounds” (Karl Thomae GmbH, priority 1988, dated 1991)

Legend:
[1] = molecular target: T1, muscarinic receptors (submandibular gland) (Rattus norvegicus, UniProt P08483); assay: Binding to muscarinic receptors, 3H-NMS displacement, submandibular gland; parameters: species or system rat (male Sprague-Dawley); details: for IC50: 0.3 nM 3H-NMS, 30° C., 45 min, pH 7.4, read-out: IC50 receptor binding test, Submandibular gland (SM); for Selectivity factor [drawing 24]: head is a drawing, values equal IC50 SM / IC50 H
T1 construct: After the heart and submandibular gland and cerebral cortex had been removed; from tissue; host or cells: homogenate of rat submandibular gland
T1 sequence (P08483 whole entry): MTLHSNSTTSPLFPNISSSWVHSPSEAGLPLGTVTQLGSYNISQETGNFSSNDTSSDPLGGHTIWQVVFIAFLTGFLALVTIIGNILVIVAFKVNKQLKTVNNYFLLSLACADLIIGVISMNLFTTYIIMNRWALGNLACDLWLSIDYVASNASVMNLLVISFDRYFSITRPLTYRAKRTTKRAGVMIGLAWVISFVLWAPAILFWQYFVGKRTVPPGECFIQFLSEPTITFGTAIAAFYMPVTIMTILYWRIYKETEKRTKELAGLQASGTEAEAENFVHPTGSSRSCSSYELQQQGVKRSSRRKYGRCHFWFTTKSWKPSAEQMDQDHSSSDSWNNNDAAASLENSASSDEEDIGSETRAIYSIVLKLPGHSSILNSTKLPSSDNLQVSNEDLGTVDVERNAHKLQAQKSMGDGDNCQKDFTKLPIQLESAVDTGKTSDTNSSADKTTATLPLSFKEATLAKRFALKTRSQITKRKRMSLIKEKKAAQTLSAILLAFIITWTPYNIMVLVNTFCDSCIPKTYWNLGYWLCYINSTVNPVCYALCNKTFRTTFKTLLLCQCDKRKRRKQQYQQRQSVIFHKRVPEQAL
Procedure: (§1) The organs were donated by male Sprague-Dawley rats weighing 180-220 g After the heart and submandibular gland and cerebral cortex had been removed, all other steps were carried out in ice-cold Hepes HCl buffer (pH 7.4; 100 millimolar NaCl, 10 millimolar MgCl2). The whole heart was cut up with scissors. All the organs were then homogenised in a Potter apparatus.
(§2) For the binding test the homogenised organs were diluted as follows:
(§3) The homogenised organs were incubated at a given concentration of the radioligand and at a series of concentrations of the non-radioactive test substances in an Eppendorf centrifuge tube at 30° C. Incubation lasted 45 minutes. The radioligand used was 0.3 nanomolar ^3 H-N-methylscopolamine (^3 H-NMS). Incubation was ended by the addition of ice-cold buffer followed by vacuum filtration. The filters were rinsed with cold buffer and their radioactivity was determined. This represents the sum of specific and non-specific binding of ^3 H-NMS. The proportion of non-specific binding was defined as the radioactivity which was bound in the presence of 1 micromolar quinuclidinylbenzylate. Each measurement was taken four times. The IC50 values of the non-labelledtest substances were determined graphically. They represent that concentration of test substance at which the specific binding of ^3 H-NMS to the muscarinic receptors in the various organs was inhibited by 50%.

[2] = test system: acetylcholine effect on heart rate; assay: Inhibition of the effect of acetylcholine on heart rate in guinea pigs; assay type: in vivo; details: Cavia porcellus, iv, 5 min; guinea pig, acetylcholine 10 microgram/kg i.v. and i.a., 5 min after substance; read-out: -log ED50, Heart (heart rate) (converted)
Procedure: (§4) 5 minutes after the administration of the test substance, 10 microgram/kg of acetylcholine were simultaneously injected intravenously and intraarterially into anaesthetised guinea pigs. The heart rate was recorded directly by extracorporeal derivation of the ECG, the expiration resistance according to Konzett-Robler and contraction of the exposed bladder. In order to determine the inhibition of the acetylcholine activity on the organs under investigation, dosage/activity curves were recorded and from them -log ED50 values were determined.

[3] = molecular target: T2, M1 (Rattus norvegicus, UniProt P08482); assay: M1/M2 selectivity in the rat: reduction of McN-A-343 induced rise in blood pressure (M1); assay type: in vivo, rat (male THOM); details: iv, 5 min, i.v., 5 min before 0.3 mg/kg McN-A-343 i.v., read-out: -log ED50, Blood pressure (M1) (converted)
T2 construct: from tissue; host or cells: living rat (in vivo; sympathetic ganglia by own knowledge)
T2 sequence (P08482 1-460): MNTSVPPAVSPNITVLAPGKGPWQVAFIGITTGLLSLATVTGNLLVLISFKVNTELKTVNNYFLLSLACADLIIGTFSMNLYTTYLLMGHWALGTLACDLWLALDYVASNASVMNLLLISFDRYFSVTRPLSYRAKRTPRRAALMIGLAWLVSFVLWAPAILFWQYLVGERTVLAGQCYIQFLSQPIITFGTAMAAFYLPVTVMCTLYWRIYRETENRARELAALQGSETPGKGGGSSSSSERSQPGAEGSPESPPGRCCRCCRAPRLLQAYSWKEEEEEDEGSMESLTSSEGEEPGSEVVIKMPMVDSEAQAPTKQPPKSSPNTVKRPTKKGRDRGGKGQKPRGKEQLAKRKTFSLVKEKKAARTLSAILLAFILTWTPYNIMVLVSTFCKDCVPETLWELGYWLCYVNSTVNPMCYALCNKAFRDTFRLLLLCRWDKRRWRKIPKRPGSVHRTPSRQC
Procedure: The dosage of the substances which reduced either the vagal bradycardia (M2) or the rise in blood pressure (M1) by 50% was determined graphically. For the results see Table II.

[4] = molecular target: T3, M2 (Rattus norvegicus, UniProt P10980); assay: M1/M2 selectivity in the rat: reduction of vagal bradycardia (M2); assay type: in vivo, rat (male THOM); details: iv, 5 min, i.v., 5 min before right vagus stimulation, read-out: -log ED50, Heart (vagal bradycardia, M2) (converted)
T3 construct: from tissue; host or cells: heart of the living rat (in vivo)
T3 sequence (P10980 1-466): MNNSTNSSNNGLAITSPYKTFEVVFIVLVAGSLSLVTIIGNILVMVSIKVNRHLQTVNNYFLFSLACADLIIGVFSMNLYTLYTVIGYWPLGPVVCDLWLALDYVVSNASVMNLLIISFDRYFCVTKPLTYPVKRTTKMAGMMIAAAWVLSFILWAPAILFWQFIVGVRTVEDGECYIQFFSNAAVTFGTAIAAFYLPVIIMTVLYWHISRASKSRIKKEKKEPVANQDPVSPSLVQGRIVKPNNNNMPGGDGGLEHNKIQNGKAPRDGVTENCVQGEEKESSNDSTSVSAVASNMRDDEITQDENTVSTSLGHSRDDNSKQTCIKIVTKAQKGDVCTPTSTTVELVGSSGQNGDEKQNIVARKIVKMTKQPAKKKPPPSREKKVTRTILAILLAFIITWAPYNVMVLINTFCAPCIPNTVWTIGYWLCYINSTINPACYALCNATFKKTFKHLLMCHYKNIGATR
Procedure: The method used was described by Hammer and Giachetti (Life Sciences 31, 2991-2998 (1982)). 5 minutes after the intravenous injection of increasing doses of the substance, either the right vagus was electrically stimulated (frequency: 25 Hz; pulse width: 2 ms; duration of stimulus: 30s; voltage: supramaximal) or 0.3 mg/kg of McN-A-343 were intravenously injected into male THOM rats. The bradycardia caused by vagus stimulation and the rise in blood pressure caused by McN-A-343 were determined. The dosage of the substances which reduced either the vagal bradycardia (M2) or the rise in blood pressure (M1) by 50% was determined graphically. For the results see Table II.

[5] = test system: acetylcholine effect on bladder; assay: Inhibition of the effect of acetylcholine on the bladder in guinea pigs; assay type: in vivo; details: Cavia porcellus, iv, 5 min; guinea pig, acetylcholine 10 microgram/kg i.v. and i.a., 5 min after substance; read-out: -log ED50, Bladder (converted)
Procedure: as §4

[6] = test system: acetylcholine effect on bronchi; assay: Inhibition of the effect of acetylcholine on the bronchi in guinea pigs; assay type: in vivo; details: Cavia porcellus, iv, 5 min; guinea pig, acetylcholine 10 microgram/kg i.v. and i.a., 5 min after substance; read-out: -log ED50, Bronchi (converted)
Procedure: as §4

[7] = molecular target: T4, muscarinic receptors (heart) (Rattus norvegicus, UniProt P10980); assay: Binding to muscarinic receptors, 3H-NMS displacement, heart; parameters: species or system rat (male Sprague-Dawley); details: for IC50: 0.3 nM 3H-NMS, 30° C., 45 min, pH 7.4, read-out: IC50 receptor binding test, Heart (H); for potency compared with compound D: Table I, receptor binding, same selectivity maintained
T4 construct: The whole heart was cut up with scissors; All the organs were then homogenised in a Potter apparatus; from tissue; host or cells: homogenate of rat whole heart
T4 sequence (P10980 1-466): T3 sequence (P10980 1-466)
Procedure: as §1, §2, §3

[8] = test system: secretion of saliva; assay: Salivation-inhibiting effect in the rat (pilocarpine); assay type: in vivo, rat (male THOM); details: iv, urethane anaesthesia, pilocarpine 2 mg/kg s.c., read-out: -log ED50, Salivation inhibition (converted)
Procedure: The secretion of saliva was initiated by subcutaneous administration of 2 mg/kg of pilocarpine. The saliva was absorbed with blotting paper and the surface area covered was measured every 5 minutes by planimetry. The dosage of the substance which reduced the volume of saliva by 50% was determined graphically. For the results see Table II.

[9] = molecular target: muscarinic receptors (cerebral cortex); assay: Binding to muscarinic receptors, 3H-NMS displacement, cerebral cortex; parameters: species or system rat (male Sprague-Dawley); details: for IC50: 0.3 nM 3H-NMS, 30° C., 45 min, pH 7.4, read-out: IC50 receptor binding test, Cortex (C); for Selectivity factor [drawing 25]: head is a drawing, values equal IC50 C / IC50 H
Procedure: as §1, §2, §3

[10] = molecular target: T5, histamine-H1 receptor (Rattus norvegicus, UniProt P31390); assay: Binding to the histamine-H1 receptor (3H-pyrilamine); details: 2 nM 3H-pyrilamine, ambient temperature, 60 min, whole rat brain without cerebellum
T5 construct: whole rat brains were used without the cerebellum; from tissue; host or cells: membranes of whole rat brain without cerebellum
T5 sequence (P31390 whole entry): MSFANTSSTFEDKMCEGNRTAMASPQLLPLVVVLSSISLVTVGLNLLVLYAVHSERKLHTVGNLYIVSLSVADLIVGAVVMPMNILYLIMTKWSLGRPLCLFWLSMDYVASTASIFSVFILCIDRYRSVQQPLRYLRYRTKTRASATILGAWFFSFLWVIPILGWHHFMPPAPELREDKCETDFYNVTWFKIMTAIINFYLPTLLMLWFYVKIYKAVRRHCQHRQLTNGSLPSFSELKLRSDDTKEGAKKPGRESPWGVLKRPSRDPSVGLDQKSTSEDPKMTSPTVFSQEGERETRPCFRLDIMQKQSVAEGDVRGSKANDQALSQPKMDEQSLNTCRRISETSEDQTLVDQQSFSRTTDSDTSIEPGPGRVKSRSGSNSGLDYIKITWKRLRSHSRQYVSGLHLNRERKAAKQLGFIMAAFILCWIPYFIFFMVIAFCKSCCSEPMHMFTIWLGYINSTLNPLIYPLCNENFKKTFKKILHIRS
Procedure: In these tests, whole rat brains were used without the cerebellum. The tissue was homogenised in a phosphate buffer pH 7.5 according to Sorensen using the Ultra-Turrax. The homogenised material was then washed twice and centrifuged at 50,000×g. The pellet was taken up in a dilution, based on the starting tissue, of 1:100. […] The reactions were also ended by vacuum filtration and the radioactivity of the filters was measured. The non-specific binding was determined using mixtures which contained 10 micromolar triprolidine. The results were evaluated as in the studies of binding to the imipramine receptor.

[11] = Water solubility of the monohydrochloride; assay type: physicochemical

Structure (SMILES) | IC50 [1] [nM] | Selectivity factor [drawing 24] [1] | ED50 [2] [µmol/kg] | ED50 [3] [µmol/kg] | ED50 [4] [µmol/kg] | ED50 [5] [µmol/kg] | ED50 [6] [µmol/kg] | IC50 [7] [nM] | potency compared with compound D [7] | ED50 [8] [µmol/kg] | IC50 [9] [nM] | Selectivity factor [drawing 25] [9] | IC50 [10] [nM] | water solubility (monohydrochloride) [11]
O=C1Nc2cccnc2N(CCCCCCN2CCCCC2)c2ccccc21 [A, 5,11-dihydro-11-[6-(1-piperidinyl)hexyl]-6H-pyrido[2,3-b][1,4]benzodiazepin-6-one] | 10 | 16.7 | 0.0661 | 0.295 | 0.011 | 1.29 | 0.0851 | 0.6 | considerably higher potency | 0.447 | 4 | 6.7 |  | 
CCN(CC)CC1CCCCN1CCCCN1c2ccccc2C(=O)Nc2cccnc21 (stereo not shown) [B, 11-[4-[2-[(diethylamino)methyl]-1-piperidinyl]butyl]-5,11-dihydro-6H-pyrido[2,3-b][1,4]benzodiazepin-6-one] | 80 | 40 | 0.468 | 0.676 | 0.0398 | > 10 | 0.646 | 2 | considerably higher potency | 3.16 | 20 | 10 | 9000 | 
CCN(CC)CC1CCCCN1CC#CCN1c2ccccc2C(=O)Nc2cccnc21 (stereo not shown) [C, 11-[4-[2-[(diethylamino)methyl]-1-piperidinyl]but-2-ynyl]-5,11-dihydro-6H-pyrido[2,3-b][1,4]benzodiazepin-6-one] | 700 | 38.9 | 0.245 | 1.1 | 0.0302 | > 2.29 | 1.58 | 18 | considerably higher potency | 7.59 | 200 | 11.1 |  | 
CCN(CC)CC1CCCCN1CC(=O)N1c2ccccc2C(=O)Nc2cccnc21 (stereo not shown) [D, 11-[[2-[(diethylamino)methyl]-1-piperidinyl]acetyl]-5,11-dihydro-6H-pyrido[2,3-b][1,4]benzodiazepin-6-one, reference compound] |  |  |  |  |  |  |  |  |  | 10 |  |  |  | 
Cl.O=C1Nc2ccccc2N(CCCCCCN2CCCCCC2)c2ccccc21 [Example 16, 5,10-Dihydro-5-[6-(hexahydro-1H-1-azepinyl)hexyl]-11H-dibenzo[b,e][1,4]diazepin-11-one hydrochloride] |  |  |  |  |  |  |  |  |  |  |  |  |  | sparingly soluble in water
CN1[C@@H]2CC[C@H]1C[C@@H](OC(=O)C(CO)c1ccccc1)C2 (stereo partly shown) [F, atropine, reference compound] |  |  | 0.02 |  |  |  |  |  |  |  |  |  |  | 
